Assay results taken from article PMC6789118, “Structural basis for substrate specificity and regulation of nucleotide sugar transporters in the lipid bilayer” (Nature Communications, 2019).

How the values were obtained:
[1] = biological target: T1, Vrg4 N221A variant (Saccharomyces cerevisiae, UniProt P40107, N221A); assay: IC50 competition of 3H-GMP uptake into proteoliposomes, N221A variant; format: biochemical
T1 construct: GFP (cleaved yes); made in house; host or cells: S. cerevisiae strain BJ5460
Procedure: (§1) Vrg4 was reconstituted into liposomes made from yeast polar lipids using the dilution method into preformed lipid vesicles. Chloroform was removed from yeast polar lipids (Avanti polar lipids) through the use of a rotary evaporator to obtain a thin film. The lipids were washed twice in pentane and then resuspended at 5 mg ml^−1 in lipid buffer (20 mM HEPES pH 7.5, 100 mM KCl). These lipid vesicles were frozen and thawed twice in liquid nitrogen and stored at −80 °C until required. For reconstitution, the lipids were thawed and then extruded first through a 0.8-μm filter and then through a 0.4-μm filter. Purified Vrg4 in DM (at 0.5 μg μl^−1 concentration) was added to the lipids at a final lipid:protein ratio of 80:1 and incubated for 1 h at room temperature, then for a further 1 h on ice; for the no-protein liposome control, the same volume of gel filtration buffer containing 0.3% DM was added. […] The amount of protein (both wild-type and mutant variants) reconstituted into the lipids was quantified by SDS–PAGE and densitometry.
(§2) To analyse transport activity, proteoliposomes were thawed and the desired concentration of internal substrate was added (typically 0.5 mM for mutant variant analysis). […] The amount of GMP transported inside the liposomes was calculated by scintillation counting in Ultima Gold (Perkin Elmer) […]

[2] = biological target: T2, Vrg4 N220A variant (Saccharomyces cerevisiae, UniProt P40107, N220A); assay: IC50 competition of 3H-GMP uptake into proteoliposomes, N220A variant; format: biochemical
T2 construct: GFP (cleaved yes); made in house; host or cells: S. cerevisiae strain BJ5460
Procedure: as §1, §2

[3] = system: Vrg4 wild type (WT); set-up: method as in PMID 29143814; conditions: WT Vrg4 in yeast polar lipid liposomes, 0.5 mM GMP inside, 3H-GMP uptake, cold competitor outside, 3 min; WT data published previously ref 10; cited from earlier work
[4] = biological target: T3, Vrg4 Y281F variant (Saccharomyces cerevisiae, UniProt P40107, Y281F); assay: IC50 competition of 3H-GMP uptake into proteoliposomes, Y281F variant; format: biochemical
T3 construct: GFP (cleaved yes); made in house; host or cells: S. cerevisiae strain BJ5460
Procedure: as §1, §2

[5] = biological target: T4, Vrg4 (Saccharomyces cerevisiae, UniProt P40107); set-up: method as in PMID 29143814; conditions: GDP-mannose:GMP compared with GMP:GMP in liposome-based assays ref 10; cited from earlier work
T4 construct: GFP (cleaved yes); made in house; host or cells: S. cerevisiae strain BJ5460
T4 sequence (P40107 1-337): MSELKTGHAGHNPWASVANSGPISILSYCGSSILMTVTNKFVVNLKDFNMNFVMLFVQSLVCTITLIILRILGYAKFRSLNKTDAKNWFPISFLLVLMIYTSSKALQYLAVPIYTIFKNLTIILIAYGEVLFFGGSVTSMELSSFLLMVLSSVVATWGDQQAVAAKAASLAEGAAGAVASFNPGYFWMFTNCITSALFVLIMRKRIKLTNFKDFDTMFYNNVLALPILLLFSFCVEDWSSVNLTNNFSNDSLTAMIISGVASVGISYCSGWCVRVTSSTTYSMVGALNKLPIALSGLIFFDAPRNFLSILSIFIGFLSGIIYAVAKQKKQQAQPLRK

[6] = biological target: T5, Vrg4 S269A variant (Saccharomyces cerevisiae, UniProt P40107, S269A); assay: IC50 competition of 3H-GMP uptake into proteoliposomes, S269A variant; format: biochemical; conditions: S269A variant (removal of S269); in words
T5 construct: GFP (cleaved yes); made in house; host or cells: S. cerevisiae strain BJ5460
Procedure: as §1, §2

[7] = biological target: T6, Vrg4 S266A variant (Saccharomyces cerevisiae, UniProt P40107, S266A); assay: IC50 competition of 3H-GMP uptake into proteoliposomes, S266A variant; format: biochemical; conditions: in words
T6 construct: GFP (cleaved yes); made in house; host or cells: S. cerevisiae strain BJ5460
Procedure: as §1, §2

[8] = biological target: T4, Vrg4; assay: Liposome-based transport rates under different antiport conditions; format: biochemical; conditions: 22 °C, rank among antiport conditions
Procedure: as §1, §2

[9] = biological target: T7, Vrg4 Y281A variant (Saccharomyces cerevisiae, UniProt P40107, Y281A); assay: Thermal stability in the presence of ligand, Y281A variant; format: binding; conditions: 1 mM GMP, N=3
T7 construct: GFP (cleaved yes); made in house; host or cells: S. cerevisiae strain BJ5460
Procedure: (§3) Thermal stability of protein samples was analysed using a Prometheus NT.48 (NanoTemper Technologies)[39]. The proteins were diluted to a final concentration of 0.7 mg ml^−1 into buffer containing 20 mM Hepes, pH 7.5, 50 mM KCl, 2 mM magnesium sulphate and 0.03% (w/v) DDM or 0.3% DM. Thermal measurements were carried out in a range from 20 to 95 °C with 1 °C per min steps. The resulting melting curves were generated by plotting the first derivative of the fluorescence ratio at 330 nm/350 nm (excitation 280 nm) against temperature. For stability in the presence of ligand (GMP) the ligand was added to the sample at a final concentration of 0.5 mM and the sample was incubated at room temperature for 5 min prior to analysis. For the sample in liposomes, reconstituted Vrg4, at a protein concentration of 0.4 mg ml^−1, in yeast polar lipids were prepared in 20 mM Hepes, pH 7.5, 50 mM KCl, 2 mM magnesium sulphate and extruded through a 0.4 μm membrane prior to analysis. For the solubilised liposome sample, liposomes were solubilised in 1.5% DDM for one hour and centrifuged at 100,000 × g for 30 min prior to analysis.

[10] = biological target: T8, Vrg4 K118A variant (Saccharomyces cerevisiae, UniProt P40107, K118A); assay: Thermal stability in the presence of ligand, K118A variant; format: binding; conditions: 1 mM GMP
T8 construct: GFP (cleaved yes); made in house; host or cells: S. cerevisiae strain BJ5460
Procedure: as §3

[11] = biological target: T9, Vrg4 K118A variant (Saccharomyces cerevisiae, UniProt P40107 1-337, K118A); assay: cell-based or functional assay
T9 sequence: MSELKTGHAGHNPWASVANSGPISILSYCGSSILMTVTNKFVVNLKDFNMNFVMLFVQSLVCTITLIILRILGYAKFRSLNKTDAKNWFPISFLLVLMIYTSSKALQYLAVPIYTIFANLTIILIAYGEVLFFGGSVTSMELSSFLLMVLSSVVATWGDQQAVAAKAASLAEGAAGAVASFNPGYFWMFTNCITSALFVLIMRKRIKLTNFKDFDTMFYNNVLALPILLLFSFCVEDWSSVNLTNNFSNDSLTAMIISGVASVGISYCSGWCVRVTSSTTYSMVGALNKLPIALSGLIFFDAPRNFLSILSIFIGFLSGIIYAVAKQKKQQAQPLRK

T5 sequence (P40107 whole entry S269A): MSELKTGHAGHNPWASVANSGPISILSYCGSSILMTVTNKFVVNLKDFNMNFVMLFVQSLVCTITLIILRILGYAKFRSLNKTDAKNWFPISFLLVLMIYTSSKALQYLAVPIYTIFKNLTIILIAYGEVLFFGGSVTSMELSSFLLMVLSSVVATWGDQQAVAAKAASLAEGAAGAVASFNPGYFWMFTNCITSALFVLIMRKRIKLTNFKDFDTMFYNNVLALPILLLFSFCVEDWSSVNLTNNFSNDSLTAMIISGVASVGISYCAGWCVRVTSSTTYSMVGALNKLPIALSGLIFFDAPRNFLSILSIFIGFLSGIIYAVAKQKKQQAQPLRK
T6 sequence (P40107 whole entry S266A): as the sequence (P40107 whole entry S269A) above, with S266A, A269S counted along it
T3 sequence (P40107 whole entry Y281F): as the sequence (P40107 whole entry S269A) above, with A269S, Y281F counted along it
T2 sequence (P40107 whole entry N220A): as the sequence (P40107 whole entry S269A) above, with N220A, A269S counted along it
T1 sequence (P40107 whole entry N221A): as the sequence (P40107 whole entry S269A) above, with N221A, A269S counted along it
T7 sequence (P40107 whole entry Y281A): as the sequence (P40107 whole entry S269A) above, with A269S, Y281A counted along it

For `Nc1ncnc2c1ncn2[C@@H]1O[C@H](COP(=O)(O)O)[C@@H](O)[C@H]1O` [AMP], the IC50 [1] is given as 27 µM, the “affinity compared with WT” value ([2]; N220A variant, IC50 analysis, in words) is given as “markedly reduced” and the IC50 [3] is given as 50 µM.

For `Nc1nc2c(ncn2[C@@H]2O[C@H](COP(=O)(O)OP(=O)(O)O[C@H]3O[C@H](CO)[C@@H](O)[C@H](O)[C@@H]3O)[C@@H](O)[C@H]2O)c(=O)[nH]1` [GDP-mannose], the “affinity of the variant compared with wild type” value ([4]; Y281F variant, IC50 analysis, in words) is given as “remains the same as wild type”, the transport efficiency [5] is given as “more efficient” and the “change in the IC50 compared with WT” value [6] is given as “did not result in any significant change”. For the same molecule, the “affinity compared with WT” value ([7]; IC50 analysis) was “only slightly reduced”, the transport rate ([8]; GDP-mannose:GDP-mannose antiport (transported against itself), 0.5 mM inside, 20 μM outside) was “fastest” and the IC50 [3] was 7.6 µM.

For `Nc1nc2c(ncn2[C@@H]2O[C@H](COP(=O)(O)O)[C@@H](O)[C@H]2O)c(=O)[nH]1` [GMP, guanine monophosphate], the IC50 [4] was 23 µM, the IC50 [1] was 22 µM and the IC50 [2] was 12 µM. For the same molecule, the “change in the IC50 compared with WT” value [6] was “did not result in any significant change”, the “IC50 value for GMP transport compared with WT” value [7] was “significant increase” and the “thermal stabilisation of the protein by ligand” value [9] was “not stabilised”. The transport rate ([8]; GMP:AMP antiport, 1 mM AMP inside, 20 μM GMP outside) was “slowest”, the “thermal stabilisation of the protein by ligand” value [10] was “stabilised to a similar extent as WT Vrg4” and the IC50 [3] was 7 µM.

B1: Vrg4, GDP-mannose transporter from Saccharomyces cerevisiae (wild type) (natural protein)
chain: MSELKTGHAGHNPWASVANSGPISILSYCGSSILMTVTNKFVVNLKDFNMNFVMLFVQSLVCTITLIILRILGYAKFRSLNKTDAKNWFPISFLLVLMIYTSSKALQYLAVPIYTIFKNLTIILIAYGEVLFFGGSVTSMELSSFLLMVLSSVVATWGDQQAVAAKAASLAEGAAGAVASFNPGYFWMFTNCITSALFVLIMRKRIKLTNFKDFDTMFYNNVLALPILLLFSFCVEDWSSVNLTNNFSNDSLTAMIISGVASVGISYCSGWCVRVTSSTTYSMVGALNKLPIALSGLIFFDAPRNFLSILSIFIGFLSGIIYAVAKQKKQQAQPLRK
In the case of B1, the “dominant negative assay: transport of 3H-GMP into liposomes reconstituted with equimolar WT and K118A (also at 75 and 25% WT), relative to WT alone” value [11] is reported as about 75%.
